Source: US20240246905A1 (University of Leicester, priority 2021, published 2024)
≈ marks a conversion by molar mass, not a printed value. Where two headings read alike, the source gives them in different places.

Legend:
Manduca sexta = test: Systemic toxicity, Manduca sexta survival and mass growth; assay type: in vivo; conditions: 1% solution, by 48 hours
Description: The use of Galleria for evaluating systemic toxicity study provided a straightforward method for screening any immediate toxicity issues associated with the lead compounds. One problem encountered with this model is the complications of obtaining quantitative results since only live/dead outcomes can be recorded. As an alternative and quantitative approach for systemic toxicity, it was decided to use a new model using Manduca sexta as the subject, replacing the much smaller and difficult to handle, Galleria mellonella. The Manduca sexta assay allows for the mass change of the larvae to be measured over hours/days, thus giving information not only on survival but also on the organisms' fitness^(26) Promisingly, the 72 hour assay performed at concentrations of 1 mg/mL on the selected lead compounds gave identical results to those obtained using the Galleria infection model, indicating no apparent toxicity issues for the compounds. […] As a […] control, the Manduca were injected with a 1% solution of NaN3. […]
[…] The mass of each hornworm was measured before and up to 72 hours after injection at set 24 hour intervals. The systemic toxicity was determined as the percentage survival and mass growth relative to the positive control at the pre-determined set intervals.

Galleria mellonella = test: Systemic toxicity, Galleria mellonella survival; conditions: n = 10, injection of 500 μg/mL
Experimental: Galleria mellonella wax worms purchased from www.livefoods.co.uk were inoculated with 10 μL of a series of dilutions of the antibiotics synthesised in-house. The antibiotic concentrations chosen for this study were the following: 1000 μg/mL, 500 μg/mL, 250 μg/mL, 125 μg/mL and 31.25 μg/mL. Each dilution was injected into 10 individual wax worms through their last pro-leg. The injected wax worms were stored at 25° C. for 5 days. The cytotoxicity was determined as the percentage survival rate of Galleria mellonella Wax worms after 5 days inoculation.

MSSA 476 [1] = test: Disc diffusion (Kirby-Bauer), zone of inhibition; assay type: cell-based, Staphylococcus aureus; conditions: 500 μg/mL, '/' = no zone; for zone of inhibition at 500 µg/mL: Staphylococcus aureus
Experimental: (§1) E. coli DH5α, P. aeruginosa PA01 and the 53 S. aureus strains were recovered from frozen (−80° C.) glycerol (15% v/v) stocks on Lysogeny agar (LA)—Gram negative and trypticase soy agar (TSA)—plates at 37° C. for 24 hours. Single colonies were placed in either 3 mL Lysogeny broth (LB)—Gram negative or trypticase soy broth (TSB)—Gram positive and incubated at 37° C., 250 rpm for 18 hours.
(§2) The antibiotic activity was determined using a Kirby-Bauer method according to Clinical Standard Laboratory Institute (CSLI) Guidelines (2017). Briefly, 180 μL of a 1 in 200 dilution (in LB or TSB) of overnight cultures of selected Gram negative and Gram positive bacteria were applied to an agar plate containing the solid growth medium, Mueller-Hinton agar (MHA). Sterile discs, inoculated with 50 μL of antibiotic, were first added to the agar plate before the plates were incubated for 24 hours at 37° C. Following incubation, the zone of inhibition (if it existed) was recorded.

MRSA 252 [2] = test: Disc diffusion (Kirby-Bauer), zone of inhibition; assay type: cell-based, Staphylococcus aureus; conditions: 500 μg/mL, '/' = no zone; for zone of inhibition at 500 µg/mL: Staphylococcus aureus
Experimental: as §1, §2

MSSA 476 [3] = test: MIC, broth micro-dilution; assay type: cell-based, Staphylococcus aureus
Experimental: as §1
(§3) Antibiotic MIC's were determined by a broth micro-dilution method according to Clinical Standard Laboratory Institute (CSLI) Guidelines (2017). Briefly, 96-well microplates, each containing 195 μL of the 1:2 dilution antibiotic in TSB, were inoculated with 5 μL of overnight cultured bacteria, diluted to give a starting bacterial concentration of 5×10^5 CFU/mL. The optical density of each well inoculated was recorded every 12 minutes over an 18 hour period at 37° C. The data from this was plotted in OriginPro8 (OriginLab) and sigmoidal curves fitted using the dose response function. Fitted values for each curve were used to calculate the MIC.

MRSA 252 [4] = test: MIC, broth micro-dilution; assay type: cell-based, Staphylococcus aureus
Experimental: as §1, §3

Escherichia coli DH5α = test: Disc diffusion (Kirby-Bauer), zone of inhibition; assay type: cell-based
Experimental: as §1, §2

[5] = tested on: Staphylococcus aureus 15981; test: Disc diffusion (Kirby-Bauer), zone of inhibition; assay type: cell-based; conditions: 500 μg/mL, '/' = no zone
Experimental: as §1, §2

insect phenol-oxidases = test: Inhibition of insect phenol-oxidases; assay type: biochemical
[6] = tested on: methicillin resistant Staphylococcus aureus strains; assay type: cell-based; conditions: clinically relevant methicillin resistant Staphylococcus aureus strains
[7] = Stability in the presence of glutathione (NMR); assay type: physicochemical; conditions: up to 24 hours, DMSO-D6
Description: It is well known that compounds bearing an isocyanide group are usually highly reactive, capable of reacting with electrophiles, nucleophiles and radicals.^(30) As a result, it was important to identify any stability issues which might be encountered by the lead compounds, both in storage and in the presence of glutathione and cysteine. […] Another common feature of the lead compounds is the vinyl fragment. It was hypothesized that the presence of glutathione and cysteine found in eukaryotic cells could potentially interact with the electrophilic alkene group in the compounds, thus shutting down their antibiotic activity. To probe this potentially detrimental in vivo process, compound 39 was subjected to glutathione for up to 24 hours whilst compound 41 was added to cysteine for the same length of time.

[8] = tested on: Pseudomonas aeruginosa PA01; test: Disc diffusion (Kirby-Bauer), zone of inhibition; assay type: cell-based; conditions: 500 μg/mL, '/' = no zone
Experimental: as §1, §2

[9] = tested on: MRSA 252, MSSA 476, S. aureus 15981, P. aeruginosa PA01 and E. coli DH5α; test: Disc diffusion primary screening, five strains (statements in words); assay type: cell-based; conditions: 500 μg/mL
Experimental: As such, the minimum inhibition concentration (MICs) of biologically active compounds were further assessed using the broth dilution method against the S. aureus strains; MRSA 252 and MSSA 476 (Table 1). The results of both assays enabled key structural elements and functional groups required for the compounds to retain their antibiotic activity to be identified.
as §2

MRSA 252 [10] = test: Resistance testing by serial passaging; assay type: cell-based, S. aureus; conditions: 18 serial passage cycles
Experimental: Next a serial passage study was undertaken in order to elucidate the speed at which target bacteria might either evolve resistance or select for persister cells within that population following exposure to compound 36.
For resistance development by serial passaging, 5 μL of overnight cultured MRSA 252 cells were added to individual wells in a 96-well plate containing 195 μL of TSB supplemented with a range of antibiotic concentrations and incubated at 37° C. for 18 hours. Ofloxacin served as a control. Wells where bacterial growth was visible after 18 hours were plated on TSA plates and incubated at 37° C. for a further 18 hours. Single colonies obtained from the overnight cultured bacteria were then inoculated into fresh TSB medium, incubated at 37° C. for 18 hours before being used in the next cycle of the resistance testing. This process continued for 18 cycles.

red blood cells = test: Hemolysis assay (CO-ADD); assay type: cell-based; conditions: 32 μg/mL highest concentration tested
Description: A problem often encountered by emerging drugs is hemolysis, also known as drug-induced immune hemolytic anemia.

C. albicans ATCC 90028 = test: Anti-fungal MIC (CO-ADD); assay type: cell-based; conditions: Candida albicans, ATCC90028, read-out: MIC
Experimental: (§4) Fungal strains were cultured for 3 days on Yeast Extract-Peptone Dextrose (YPD) agar at 30° C. A yeast suspension of 1×10^6 to 5×10^6 CFU/mL (as determined by OD530) was prepared from five colonies. […] All plates were covered and incubated at 35° C. for 36 hours without shaking. […] The absorbance was measured using a Biotek Multiflo Synergy HTX plate reader. In both cases, the percentage of growth inhibition was calculated for each well, using the negative control (media only) and positive control (fungi without inhibitors) on the same plate. […] Due to a higher variance in growth and inhibition, a lower threshold was applied to the data for C. neoformans. In addition, the maximal percentage of growth inhibition is reported as DMax, indicating any compounds with marginal activity.

[11] = tested on: C. neoformans H99; ATCC 208821; test: Anti-fungal MIC (CO-ADD); assay type: cell-based; conditions: Cryptococcus neoformans, ATCC208821, read-out: MIC
Experimental: as §4

C. glabrata ATCC 90030 = test: Anti-fungal MIC (CO-ADD); assay type: cell-based; conditions: Nakaseomyces glabratus, ATCC90030, read-out: MIC
Experimental: as §4

C. tropicalis ATCC 750 = test: Anti-fungal MIC (CO-ADD); assay type: cell-based; conditions: Candida tropicalis, ATCC750, read-out: MIC
Experimental: as §4

C. tropicalis ATCC 450 = test: Anti-fungal MIC (CO-ADD); assay type: cell-based; conditions: Candida tropicalis, ATCC450, read-out: MIC
Experimental: as §4

[12] = tested on: C. deuterogattii ATCC 32609; test: Anti-fungal MIC (CO-ADD); assay type: cell-based; conditions: read-out: MIC
Experimental: as §4

HEK293 cells = test: Cytotoxicity assay, resazurin (CO-ADD); conditions: HEK 293
Experimental: The cytotoxicity studies were performed by CO-ADD (The Community for Open Antimicrobial Drug Discovery), funded by the Wellcome trust (UK) and the University of Queensland, Australia.^(28) In this study, the compounds were screened against a human embryonic kidney cell line, HEK293, at a set concentration of 32 μg/mL.
DMEM supplemented with 10% FBS was used as growth media and the cells were incubated together with the compounds for 20 hours at 37° C. in 5% CO2.
Cytotoxicity (or cell viability) was measured by fluorescence, excitation: 560/10 nm, emission: 590/10 nm (F560/590), after addition of 5 μL of 25 μg/mL Resazurin (2.3 μg/mL final concentration) and after incubation for further 3 h at 37° C. in 5% CO2. The fluorescence intensity was measured using a Tecan M1000 Pro monochromator plate reader, using automatic gain calculation CC50 (concentration at 50% cytotoxicity) were calculated by curve fitting the inhibition values vs. log(concentration) using sigmoidal dose-response function, with variable fitting values for bottom, top and slope. The curve fitting was implemented using Pipeline Pilot's dose-response component.

[N-]=[N+]=[N-].[Na+] [Negative Control (NaN3), NaN3, reference compound]
survival of Manduca sexta (Manduca sexta): had all died | % survival after 5 days (Galleria mellonella): 0%

[C-]#[N+]C=Cc1c[nH]c2ccccc12 [Compound 26, 3-(2-Isocyanovinyl)-1H-indole]
Zone of inhibition (MSSA 476 [1]): 20 mm | Zone of inhibition (MRSA 252 [2]): 20 mm | MIC (MSSA 476 [3]): 222 µg/mL (≈ 1320 µM) | MIC (MRSA 252 [4]): 20 µg/mL (≈ 119 µM) | % survival after 5 days (Galleria mellonella): 100% | zone of inhibition at 500 µg/mL (Escherichia coli DH5α; Escherichia coli): 20 mm | Zone of inhibition ([5]; Staphylococcus aureus 15981): 22 mm

Byelyankacin
inhibition of insect phenol-oxidases (in words) (insect phenol-oxidases): inhibitor of insect phenol-oxidases | antibiotic activity (in words) [6]: good antibiotic activity

[C-]#[N+]C=Cc1c[nH]c2ccccc12 [Compound 25, 3-(2-Isocyanovinyl)-1H-indole]
zone of inhibition at 500 µg/mL (MSSA 476 [1]; MSSA): 16 mm | zone of inhibition at 500 µg/mL (MRSA 252 [2]; MRSA): 18 mm | MIC (MSSA 476 [3]; Staphylococcus aureus, MSSA): 166 µg/mL (≈ 987 µM) | MIC (MRSA 252 [4]): 61 µg/mL (≈ 363 µM) | % survival after 5 days (Galleria mellonella): 90% | zone of inhibition at 500 µg/mL ([5]; Staphylococcus aureus, 15981, Staphylococcus aureus 15981): 16 mm

phenol vinyl isocyanide [(E)-4]
antibiotic activity (in words) [6]: good antibiotic activity

[C-]#[N+]/C=C/c1ccccc1/C=C/c1ccncc1 [Compound 39]
Zone of inhibition (MSSA 476 [1]): 32 mm | Zone of inhibition (MRSA 252 [2]): 28 mm | structure after exposure to glutathione (NMR) [7]: no change in the structure | MIC (MSSA 476 [3]): 15 µg/mL (≈ 64.6 µM) | MIC (MRSA 252 [4]): 12 µg/mL (≈ 51.7 µM) | Zone of inhibition (Escherichia coli DH5α; Escherichia coli DH5α, 500 μg/mL, '/' = no zone): 12 mm | Zone of inhibition [8]: 20 mm | Zone of inhibition ([5]; Staphylococcus aureus 15981): 26 mm | antibiotic activity in disc diffusion assays (in words) [9]: retaining its activity against the Gram negative P. aeruginosa and E. coli

CC1COc2c(N3CCN(C)CC3)c(F)cc3c(=O)c(C(=O)O)cn1c23 (centres unmarked) [ofloxacin, reference compound]
increase in MIC after serial passage (MRSA 252 [10]): greater than 10 fold

[C-]#[N+]/C=C/c1ccccc1/C=C/c1ccccc1 [Compound 38, 1-((E)-2-Isocyanovinyl)-2-((E)-styryl)benzene]
zone of inhibition at 500 µg/mL (MSSA 476 [1]; read-out: Zone of inhibition): 30 mm | zone of inhibition at 500 µg/mL (MRSA 252 [2]; read-out: Zone of inhibition): 30 mm | MIC (MSSA 476 [3]; Staphylococcus aureus, MSSA, read-out: MIC): 3 µg/mL (≈ 13 µM) | MIC (MRSA 252 [4]; Staphylococcus aureus, read-out: MIC): 5 µg/mL (≈ 21.6 µM) | Hemolytic activity (HC10) (red blood cells): >32 µg/mL | MIC (C. albicans ATCC 90028): 2 to 4 µg/mL | MIC [11]: 4 µg/mL | MIC (C. glabrata ATCC 90030): > 32 µg/mL | MIC (C. tropicalis ATCC 750): 8 to 16 µg/mL | MIC (C. tropicalis ATCC 450): 2 µg/mL | MIC [12]: 2 µg/mL | zone of inhibition at 500 µg/mL (Escherichia coli DH5α; Escherichia coli DH5α, 500 μg/mL, '/' = no zone, read-out: Zone of inhibition): 28 mm | zone of inhibition at 500 µg/mL [8]: 26 mm | zone of inhibition at 500 µg/mL ([5]; Staphylococcus aureus 15981, read-out: Zone of inhibition): 28 mm | Concentration toxic to HEK 293 cells (HEK293 cells): >32000 ng/mL | antibiotic activity in disc diffusion assays (in words) [9]: retained antibiotic activity
